Ends that are not written are not given here.
test system: S. aureus ATCC CRM 6538; experiment: not given; assay type: cell-based, Staphylococcus aureus; settings: not given
Excerpt: (§1) The anti-planktonic microorganism efficacy of the peptides was investigated via minimal bacterial inhibitory concentration (MIC) and minimal bactericidal concentration (MBC) assays. Eight types of microorganisms, including Gram-positive bacteria, Staphylococcus aureus (ATCC CRM 6538), Methicillin-resistant Staphylococcus aureus (NCTC 12493), and Enterococcus faecium (NCTC 12697), Gram-negative bacteria, Escherichia coli (ATCC CRM 8739, ATCC BAA 2340, ATCC 13846, ATCC BAA 2469, and ATCC BAA 2471), Klebsiella pneumoniae (ATCC 43816), Pseudomonas aeruginosa (ATCC CRM 9027) and Acinetobacter baumannii (ATCC BAA 747) and a yeast, Candida albicans (ATCC CRM 10231) were utilized to test the antimicrobial activity of peptides.
(§2) For the MIC assay, microorganisms were inoculated with peptides in a 96-well plate. Nutrient broth (NB) was applied for MRSA, E. coli, K. pneumoniae, and P. aeruginosa, tryptic soy broth (TSB) was applied for S. aureus, E. faecium, and A. baumannii, and yeast extract peptone dextrose broth (YPD-B) was used for C. albicans. The microorganisms were cultured (bacteria: 37 °C; yeast: 26 °C) overnight at 120 rpm and subcultured to achieve the logarithmic growth stage (5 × 10^5 CFU/mL), as confirmed by viable cell counts. After that, 99 µL of the subculture and 1 µL of the peptide were added to the 96-well plate. The final concentration of peptides ranged from 128 to 1 µmol/L (µM) using a 2-fold dilution. In addition, four other groups were established simultaneously at the commencement of the test: a growth control group, a vehicle control group (Dimethyl Sulphoxide, DMSO), a positive control group utilizing Norfloxacin at a concentration of 2 mg/mL for bacteria, and Amphotericin B. at a concentration of 1 mg/mL for yeast, and a blank control group (sterile NB/TSB/YPD-B). The MIC values were measured after overnight incubation at 37/26 °C. The optical density (OD) values were analysed at 550 nm using a Synergy HT plate reader (BioTek, Washington, USA), and were calculated using the following equation:(1) Cell Viability %=[(As−A0)/(Ag−A0)]×100% where As is the absorbance value of the sample group, A0 is the average of the absorbance values of the blank control, and Ag is the average of the absorbance values of the growth control. For the MBC assay, 10 µL of the inhibited cultures on the 96-well plate were transferred onto a corresponding medium agar plate and incubated overnight at 37/26 °C to measure MBC values. The results were obtained from three independent assays.

Compound | MBC | MIC
ALWKKILKNAGKAVLNEINQIVQ-NH2 [Peptide 14V5K] | 4 µM | 4 µM
ALWKSILKNAGKAALNEINQIVQ-NH2 [SS1] | 8 µM | 8 µM
ALWKSILKNAGKAGLNEINQIVQ-NH2 [Peptide 14G] | >128 µM | >128 µM
ALWKSILKNAGKALNEINQIVQ-NH2 [Peptide L14] | >128 µM | >128 µM
ALWKSILKNAGKAVLNEINQIV-NH2 [Peptide 14VL23] | >128 µM | >128 µM
ALWKSILKNAGKAVLNEINQIVQ-NH2 [Peptide 14V] | 4 µM | 4 µM

test system: MRSA NCTC 12493; experiment: not given; assay type: cell-based, Methicillin-resistant Staphylococcus aureus; settings: not given
Excerpt: as §1, §2

Compound | MBC | MIC
ALWKKILKNAGKAVLNEINQIVQ-NH2 [Peptide 14V5K] | 4 µM | 4 µM
ALWKSILKNAGKAALNEINQIVQ-NH2 [SS1] | >128 µM | >128 µM
ALWKSILKNAGKAGLNEINQIVQ-NH2 [Peptide 14G] | >128 µM | >128 µM
ALWKSILKNAGKALNEINQIVQ-NH2 [Peptide L14] | 32 µM | 32 µM
ALWKSILKNAGKAVLNEINQIV-NH2 [Peptide 14VL23] | >128 µM | >128 µM
ALWKSILKNAGKAVLNEINQIVQ-NH2 [Peptide 14V] | 8 µM | 8 µM

test system: E. faecalis NCTC 12697; experiment: not given; assay type: cell-based; settings: not given

Compound | MBC | MIC
ALWKKILKNAGKAVLNEINQIVQ-NH2 [Peptide 14V5K] | >128 µM | >128 µM
ALWKSILKNAGKAALNEINQIVQ-NH2 [SS1] | >128 µM | >128 µM
ALWKSILKNAGKAGLNEINQIVQ-NH2 [Peptide 14G] | >128 µM | >128 µM
ALWKSILKNAGKALNEINQIVQ-NH2 [Peptide L14] | >128 µM | >128 µM
ALWKSILKNAGKAVLNEINQIV-NH2 [Peptide 14VL23] | >128 µM | >128 µM
ALWKSILKNAGKAVLNEINQIVQ-NH2 [Peptide 14V] | >128 µM | >128 µM

test system: E. coli ATCC BAA 2340; experiment: not given; assay type: cell-based, Escherichia coli; settings: KPC strain; NB, 5 × 10^5 CFU/mL, overnight 37 °C, OD 550 nm, three independent assays
Excerpt: as §1, §2

Compound | MIC
ALWKKILKNAGKAVLNEINQIVQ-NH2 [Peptide 14V5K] | 2 µM
ALWKSILKNAGKAALNEINQIVQ-NH2 [SS1] | 4 µM

same assay, conditions: KPC strain; agar plate, overnight 37 °C, three independent assays

Compound | MBC
ALWKKILKNAGKAVLNEINQIVQ-NH2 [Peptide 14V5K] | 2 µM
ALWKSILKNAGKAALNEINQIVQ-NH2 [SS1] | 4 µM

test system: E. coli ATCC BAA 2469; experiment: not given; assay type: cell-based, Escherichia coli; settings: NDM-1 strain; NB, 5 × 10^5 CFU/mL, overnight 37 °C, OD 550 nm, three independent assays
Excerpt: as §1, §2

Compound | MIC
ALWKKILKNAGKAVLNEINQIVQ-NH2 [Peptide 14V5K] | 1 µM
ALWKSILKNAGKAALNEINQIVQ-NH2 [SS1] | 4 µM

same assay, conditions: NDM-1 strain; agar plate, overnight 37 °C, three independent assays

Compound | MBC
ALWKKILKNAGKAVLNEINQIVQ-NH2 [Peptide 14V5K] | 2 µM
ALWKSILKNAGKAALNEINQIVQ-NH2 [SS1] | 4 µM

test system: E. coli ATCC BAA 2471; experiment: not given; assay type: cell-based, Escherichia coli; settings: NDM-1 strain; NB, 5 × 10^5 CFU/mL, overnight 37 °C, OD 550 nm, three independent assays
Excerpt: as §1, §2

Compound | MIC
ALWKKILKNAGKAVLNEINQIVQ-NH2 [Peptide 14V5K] | 1 µM
ALWKSILKNAGKAALNEINQIVQ-NH2 [SS1] | 8 µM

same assay, conditions: NDM-1 strain; agar plate, overnight 37 °C, three independent assays

Compound | MBC
ALWKKILKNAGKAVLNEINQIVQ-NH2 [Peptide 14V5K] | 2 µM
ALWKSILKNAGKAALNEINQIVQ-NH2 [SS1] | 8 µM

test system: E. coli ATCC CRM 8739; experiment: not given; assay type: cell-based, Escherichia coli; settings: not given
Excerpt: as §1, §2

Compound | MBC | MIC
ALWKKILKNAGKAVLNEINQIVQ-NH2 [Peptide 14V5K] | 2 µM | 2 µM
ALWKSILKNAGKAALNEINQIVQ-NH2 [SS1] | 4 µM | 2 µM
ALWKSILKNAGKAGLNEINQIVQ-NH2 [Peptide 14G] | 16 µM | 16 µM
ALWKSILKNAGKALNEINQIVQ-NH2 [Peptide L14] | 4 µM | 4 µM
ALWKSILKNAGKAVLNEINQIV-NH2 [Peptide 14VL23] | 16 µM | 8 µM
ALWKSILKNAGKAVLNEINQIVQ-NH2 [Peptide 14V] | 2 µM | 2 µM

test system: E. coli NCTC 13846; experiment: not given; assay type: cell-based, Escherichia coli; settings: not given
Excerpt: as §1, §2

Compound | MBC | MIC
ALWKKILKNAGKAVLNEINQIVQ-NH2 [Peptide 14V5K] | 4 µM | 4 µM
ALWKSILKNAGKAALNEINQIVQ-NH2 [SS1] | 8 µM | 8 µM

test system: K. pneumoniae ATCC 43816; experiment: not given; assay type: cell-based, Klebsiella pneumoniae; settings: not given
Excerpt: as §1, §2

Compound | MBC | MIC
ALWKKILKNAGKAVLNEINQIVQ-NH2 [Peptide 14V5K] | 2 µM | 2 µM
ALWKSILKNAGKAALNEINQIVQ-NH2 [SS1] | 16 µM | 16 µM
ALWKSILKNAGKAGLNEINQIVQ-NH2 [Peptide 14G] | >128 µM | >128 µM
ALWKSILKNAGKALNEINQIVQ-NH2 [Peptide L14] | 16 µM | 16 µM
ALWKSILKNAGKAVLNEINQIV-NH2 [Peptide 14VL23] | 4 µM | 4 µM
ALWKSILKNAGKAVLNEINQIVQ-NH2 [Peptide 14V] | 8 µM | 8 µM

test system: P. aeruginosa ATCC CRM 9027; experiment: not given; assay type: cell-based, Pseudomonas aeruginosa; settings: not given
Excerpt: as §1, §2

Compound | MBC | MIC
ALWKKILKNAGKAVLNEINQIVQ-NH2 [Peptide 14V5K] | 8 µM | 8 µM
ALWKSILKNAGKAALNEINQIVQ-NH2 [SS1] | 32 µM | 32 µM
ALWKSILKNAGKAGLNEINQIVQ-NH2 [Peptide 14G] | > 128 µM | 32 µM
ALWKSILKNAGKALNEINQIVQ-NH2 [Peptide L14] | > 128 µM | 16 µM
ALWKSILKNAGKAVLNEINQIV-NH2 [Peptide 14VL23] | >128 µM | >128 µM
ALWKSILKNAGKAVLNEINQIVQ-NH2 [Peptide 14V] | > 128 µM | 16 µM

test system: A. baumannii ATCC BAA 747; experiment: not given; assay type: cell-based, Acinetobacter baumannii; settings: not given
Excerpt: as §1, §2

Compound | MBC | MIC
ALWKKILKNAGKAVLNEINQIVQ-NH2 [Peptide 14V5K] | 8 µM | 8 µM
ALWKSILKNAGKAALNEINQIVQ-NH2 [SS1] | 16 µM | 16 µM
ALWKSILKNAGKAGLNEINQIVQ-NH2 [Peptide 14G] | >128 µM | >128 µM
ALWKSILKNAGKALNEINQIVQ-NH2 [Peptide L14] | > 128 µM | 32 µM
ALWKSILKNAGKAVLNEINQIV-NH2 [Peptide 14VL23] | >128 µM | >128 µM
ALWKSILKNAGKAVLNEINQIVQ-NH2 [Peptide 14V] | 4 µM | 4 µM

test system: C. albicans ATCC CRM 10231; experiment: not given; assay type: cell-based, Candida albicans; settings: ATCC CRM 10231
Excerpt: as §1, §2

Compound | MBC | MIC
ALWKKILKNAGKAVLNEINQIVQ-NH2 [Peptide 14V5K] | 8 µM | 8 µM
ALWKSILKNAGKAALNEINQIVQ-NH2 [SS1] | >128 µM | >128 µM
ALWKSILKNAGKAGLNEINQIVQ-NH2 [Peptide 14G] | >128 µM | >128 µM
ALWKSILKNAGKALNEINQIVQ-NH2 [Peptide L14] | >128 µM | >128 µM
ALWKSILKNAGKAVLNEINQIV-NH2 [Peptide 14VL23] | >128 µM | >128 µM
ALWKSILKNAGKAVLNEINQIVQ-NH2 [Peptide 14V] | >128 µM | >128 µM

test system: horse erythrocytes; experiment: Haemolysis activity; assay type: cell-based; settings: concentration causing 50% haemolysis; 4% (v/v) horse red blood cells in PBS, peptide 128 to 1 µM, 37 °C 2 h, OD 570 nm, 1% Triton X-100 positive control, three separate assays
Protocol: To start, fresh defibrinated horse blood (TCS Biosciences Ltd., Buckingham, UK) was washed with PBS solution to obtain a clear supernatant. Then, a 4% (v/v) suspension of red blood cells was made in PBS. After this, 100 µL of the peptide solutions were incubated with 100 µL of the suspension of red blood cells in 2 mL centrifuge tubes at 37 °C for 2 h. The ultimate concentration of peptides ranged from 128 to 1 µM obtained by a 2-fold dilution. Also, two other groups were set simultaneously, including a positive control group of 1% Triton X-100 and a blank control group of phosphate-buffered saline (PBS). After incubation and centrifugation at 900× g for 10 min, a volume of 100 µL of the resulting supernatant from each specimen was carefully transferred to individual wells of the 96-well plate. Subsequently, the OD values were analysed using a Synergy HT plate reader (BioTek, USA) at a wavelength of 570 nm using the following equation:(2) Haemolysis Activity %=[(As−A0)/(Ap−A0)]×100% where As is the absorbance value of the supernatant of the peptide group, A0 is the average absorbance value of the blank control, and Ap is the average absorbance value of the positive control. The data were obtained from three separate assays.

Compound | HC50
ALWKKILKNAGKAVLNEINQIVQ-NH2 [Peptide 14V5K] | 256.00
ALWKSILKNAGKAALNEINQIVQ-NH2 [SS1] | 256.00 µM
ALWKSILKNAGKAGLNEINQIVQ-NH2 [Peptide 14G] | 256.00
ALWKSILKNAGKALNEINQIVQ-NH2 [Peptide L14] | 256.00
ALWKSILKNAGKAVLNEINQIV-NH2 [Peptide 14VL23] | 256.00
ALWKSILKNAGKAVLNEINQIVQ-NH2 [Peptide 14V] | 256.00

test system: not given; experiment: not given; settings: not given

Compound | time to eradicate bacteria
ALWKKILKNAGKAVLNEINQIVQ-NH2 [Peptide 14V5K] | < 10 min

test system: not given; experiment: not given; settings: Log P of the amino acid as quoted in the discussion; source and method not given; cited from earlier work
Excerpt: The predicted information from HeliQuest referred to the design of analogues (Figure 2). The first modification step was designed to increase hydrophobic characteristics and decrease helicity. […] The ...

Compound | Log P
C[C@H](N)C(=O)O [Alanine] | 3.54
NC(=O)CC[C@H](N)C(=O)O [Glutamine] | 3.19
NCC(=O)O [Glycine] | 3.20
CC(C)[C@H](N)C(=O)O [Valine] | 4.42
N[C@@H](CO)C(=O)O [serine] | 2.66
